Source: ChEMBL document CHEMBL1201862, “PubChem BioAssay data set” (2004)
Calls of active or inactive are those of the source.

Assays:
[1] = target: T1, Rac GTPase-activating protein 1 (Homo sapiens, UniProt Q9H0H5); assay: blockers of MgcRacGAP-driven Rac1 GTP hydrolysis – biochemical, ADP Hunter fluorescence, primary and confirmatory, confirmation (AID 624330); type: functional
T1 sequence (Q9H0H5 whole entry): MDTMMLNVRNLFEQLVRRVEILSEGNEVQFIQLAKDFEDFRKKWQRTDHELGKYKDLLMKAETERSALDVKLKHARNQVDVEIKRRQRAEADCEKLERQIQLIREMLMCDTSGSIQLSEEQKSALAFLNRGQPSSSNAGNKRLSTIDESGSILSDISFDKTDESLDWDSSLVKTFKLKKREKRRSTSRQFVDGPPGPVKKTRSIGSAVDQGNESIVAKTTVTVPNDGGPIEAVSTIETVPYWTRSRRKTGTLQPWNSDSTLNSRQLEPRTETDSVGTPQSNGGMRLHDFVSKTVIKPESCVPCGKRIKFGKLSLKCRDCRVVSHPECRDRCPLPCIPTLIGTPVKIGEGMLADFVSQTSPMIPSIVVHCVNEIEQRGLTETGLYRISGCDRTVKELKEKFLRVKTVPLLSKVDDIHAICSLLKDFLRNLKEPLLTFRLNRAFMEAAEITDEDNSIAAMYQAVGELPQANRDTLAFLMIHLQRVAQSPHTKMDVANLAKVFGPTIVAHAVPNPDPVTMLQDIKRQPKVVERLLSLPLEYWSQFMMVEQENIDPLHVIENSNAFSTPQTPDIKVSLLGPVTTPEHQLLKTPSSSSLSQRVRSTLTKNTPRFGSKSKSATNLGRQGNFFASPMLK

[2] = target: DNA (cytosine-5)-methyltransferase 1 (Homo sapiens, UniProt P26358); assay: inhibition of DNA methylation by DNMT1 – biochemical, fluorescent molecular beacon, confirmation (AID 602386); type: functional
[3] = target: 26S proteasome non-ATPase regulatory subunit 14 (Homo sapiens, UniProt O00487); assay: inhibition of proteasome subunit RPN11 – biochemical, fluorescence polarization, uHTS hits, confirmation (AID 602368); type: functional
Prothrombin = Prothrombin (Bos taurus, UniProt P00735); assay: thrombin protease inhibitors – biochemical, fluorescence polarization, uHTS hits, dose response (AID 602369); type: functional
[4] = target: 72 kDa type IV collagenase (Homo sapiens, UniProt P08253); assay: Dose Response validation of uHTS RPN11 inhibitor hits using a MMP-2 Fluorescence assay.; type: functional
[5] = target: T2, Histone-lysine N-methyltransferase NSD2 (Homo sapiens, UniProt O96028); type: biochemical
T2 sequence (O96028 whole entry): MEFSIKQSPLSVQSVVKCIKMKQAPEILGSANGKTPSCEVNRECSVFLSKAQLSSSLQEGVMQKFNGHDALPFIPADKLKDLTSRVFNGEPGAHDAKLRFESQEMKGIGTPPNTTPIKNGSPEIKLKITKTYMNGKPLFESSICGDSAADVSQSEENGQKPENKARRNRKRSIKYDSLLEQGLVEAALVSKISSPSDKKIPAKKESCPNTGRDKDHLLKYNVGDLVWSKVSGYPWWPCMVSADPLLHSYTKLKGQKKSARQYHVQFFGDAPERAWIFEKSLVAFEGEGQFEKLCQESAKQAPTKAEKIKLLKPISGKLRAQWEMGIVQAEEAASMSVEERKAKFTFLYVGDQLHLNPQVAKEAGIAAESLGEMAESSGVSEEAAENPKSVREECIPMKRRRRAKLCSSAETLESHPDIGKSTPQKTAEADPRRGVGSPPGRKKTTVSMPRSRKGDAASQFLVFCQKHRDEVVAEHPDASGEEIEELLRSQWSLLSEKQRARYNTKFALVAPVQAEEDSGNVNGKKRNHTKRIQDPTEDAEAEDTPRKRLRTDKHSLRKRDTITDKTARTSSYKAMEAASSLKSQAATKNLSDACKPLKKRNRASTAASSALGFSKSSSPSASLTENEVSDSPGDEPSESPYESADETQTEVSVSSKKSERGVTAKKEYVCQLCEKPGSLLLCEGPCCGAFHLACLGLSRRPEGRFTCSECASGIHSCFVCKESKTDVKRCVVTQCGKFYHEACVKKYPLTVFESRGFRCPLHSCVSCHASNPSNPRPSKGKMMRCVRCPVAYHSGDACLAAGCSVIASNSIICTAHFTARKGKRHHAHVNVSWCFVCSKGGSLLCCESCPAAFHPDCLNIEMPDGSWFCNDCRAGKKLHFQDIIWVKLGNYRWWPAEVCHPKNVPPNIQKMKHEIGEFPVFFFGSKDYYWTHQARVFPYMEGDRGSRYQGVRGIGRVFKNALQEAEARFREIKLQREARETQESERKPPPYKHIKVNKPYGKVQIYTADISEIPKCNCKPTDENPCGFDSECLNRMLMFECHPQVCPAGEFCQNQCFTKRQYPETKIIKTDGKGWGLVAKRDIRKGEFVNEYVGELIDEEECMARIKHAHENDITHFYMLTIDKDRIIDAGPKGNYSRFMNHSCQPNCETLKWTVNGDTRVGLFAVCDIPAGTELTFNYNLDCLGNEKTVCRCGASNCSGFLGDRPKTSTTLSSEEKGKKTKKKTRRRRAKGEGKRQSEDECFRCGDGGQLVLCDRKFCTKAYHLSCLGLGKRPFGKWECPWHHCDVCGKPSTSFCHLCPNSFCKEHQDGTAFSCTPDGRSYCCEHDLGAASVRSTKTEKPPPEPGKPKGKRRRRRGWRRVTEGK

[6] = target: T3, ATP-dependent translocase ABCB1 (Homo sapiens, UniProt P08183); assay: P-gp JC-1 efflux blockade concentration-response – Jurkat-DNR cells, flow cytometry, set 2, dose response (AID 504569); type: functional; conditions: read-out: EC50_MICROM_;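 also: potency of pump inhibitors that raise cellular JC-1 green fluorescence up to the nicardipine level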
[7] = target: T3, ATP-dependent translocase ABCB1; assay: inhibition of BCRP-mediated JC-1 efflux – Ig-MXP3 cells, flow cytometry, set 2, dose response (AID 504566); type: functional; conditions: read-out: EC50_MICROM_;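 also: flow cytometry median green fluorescence of retained JC-1 dye; potency of efflux pump inhibition measured as rising substrate retention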
[8] = target: T4, Apoptotic protease-activating factor 1 (Homo sapiens, UniProt O14727); assay: SAR analysis of small molecule Activators of Apaf-1 in a Fluorescent assay.; type: functional; conditions: read-out: EC50_Mean;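 also: caspase-3 cleavage of fluorogenic Rh110 DEVD substrate downstream of apoptosome activation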
T4 sequence (O14727 whole entry): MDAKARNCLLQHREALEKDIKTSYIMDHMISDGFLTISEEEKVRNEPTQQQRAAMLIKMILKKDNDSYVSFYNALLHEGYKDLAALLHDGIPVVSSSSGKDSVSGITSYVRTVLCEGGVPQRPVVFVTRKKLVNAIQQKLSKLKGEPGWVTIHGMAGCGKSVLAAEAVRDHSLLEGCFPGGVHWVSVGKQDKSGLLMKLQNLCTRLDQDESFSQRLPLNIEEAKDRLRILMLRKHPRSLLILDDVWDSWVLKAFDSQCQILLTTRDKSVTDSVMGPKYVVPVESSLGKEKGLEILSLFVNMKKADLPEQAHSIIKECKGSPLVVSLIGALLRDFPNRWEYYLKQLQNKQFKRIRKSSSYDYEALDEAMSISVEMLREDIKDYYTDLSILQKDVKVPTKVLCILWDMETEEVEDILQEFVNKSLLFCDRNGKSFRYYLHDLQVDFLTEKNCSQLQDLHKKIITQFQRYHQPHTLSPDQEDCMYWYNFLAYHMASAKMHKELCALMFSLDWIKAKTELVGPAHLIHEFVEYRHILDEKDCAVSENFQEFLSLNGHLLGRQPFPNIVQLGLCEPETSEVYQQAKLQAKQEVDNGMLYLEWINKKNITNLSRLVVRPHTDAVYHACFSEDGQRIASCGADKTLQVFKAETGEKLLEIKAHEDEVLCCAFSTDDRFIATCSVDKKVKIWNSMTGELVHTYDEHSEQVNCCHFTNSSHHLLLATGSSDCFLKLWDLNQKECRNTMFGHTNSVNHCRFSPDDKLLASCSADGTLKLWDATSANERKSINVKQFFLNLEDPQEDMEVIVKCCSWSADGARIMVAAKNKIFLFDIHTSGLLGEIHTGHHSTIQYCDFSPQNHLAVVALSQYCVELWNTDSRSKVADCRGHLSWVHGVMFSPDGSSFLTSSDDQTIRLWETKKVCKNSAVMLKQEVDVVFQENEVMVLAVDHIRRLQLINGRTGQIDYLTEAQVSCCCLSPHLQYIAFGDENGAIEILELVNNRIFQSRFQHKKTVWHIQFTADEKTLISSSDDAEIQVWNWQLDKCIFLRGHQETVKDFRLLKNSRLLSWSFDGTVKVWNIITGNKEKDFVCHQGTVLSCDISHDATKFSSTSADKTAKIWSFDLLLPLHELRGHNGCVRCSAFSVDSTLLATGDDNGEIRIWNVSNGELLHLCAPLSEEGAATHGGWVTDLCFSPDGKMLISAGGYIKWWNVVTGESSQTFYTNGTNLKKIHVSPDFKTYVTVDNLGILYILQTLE

Interleukin-8 [9] = target: T5, Interleukin-8 (Homo sapiens, UniProt P10145); assay: Dose Response confirmation of uHTS small molecule hits for cystic fibrosis induced NFkb Inhibitors in a TNFa-induced IL8 counterscreen.; type: functional; conditions: read-out: IC50_Mean
T5 sequence (P10145 whole entry): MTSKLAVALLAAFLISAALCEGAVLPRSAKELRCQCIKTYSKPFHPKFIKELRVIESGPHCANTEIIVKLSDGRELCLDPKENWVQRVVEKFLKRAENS

Interleukin-8 [10] = target: T5, Interleukin-8; assay: Dose Response confirmation of uHTS small molecule hits for cystic fibrosis induced NFkb Inhibitors in a PAF-induced IL8 counterscreen.; type: functional; conditions: read-out: IC50_Mean
[11] = Counterscreen for inhibitors of Trypanosoma brucei methionyl tRNA synthetase (MetRS): Luminescence-based cell-based high throughput dose response assay to identify compounds that are cytotoxic to Jurkat human T lymphocyte cells.; type: functional
Steroidogenic factor 1 = Steroidogenic factor 1 (Homo sapiens, UniProt Q13285); assay: Counterscreen for inverse agonists of the liver receptor homolog-1 (LRH-1; NR5A2): Luminescence-based cell-based high throughput dose response assay to identify inverse agonists of the Steroidogenic Factor 1 Nuclear Receptor (SF1; NR5A1).; type: functional
[12] = target: Nuclear receptor subfamily 5 group A member 2 (Homo sapiens, UniProt O00482); type: functional, cell-based;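 also: HEK293T cells transfected with LRH-1 and a StAR promoter luciferase reporter; potency for inhibitors that lower LRH-1 driven reporter light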
[13] = nonselective StAR promoter luciferase inhibitors – cell-based, luminescence, luciferase reporter, counter-screen for LRH-1 inverse agonist project, dose response (AID 651969); type: functional
[14] = target: Diacylglycerol lipase-beta (Mus musculus, UniProt Q91WC9); assay: Late stage assay provider results from the probe development effort to identify inhibitors of diacylglycerol lipase, beta (DAGLb): fluorescence-based dose-response biochemical gel-based competitive Activity-Based Protein Profiling (ABPP) inhibition of DAGLb in vitro.; type: functional
[15] = loss of viability in HepG2 cells – cell-based, CellTiter-Glo, cherry-picked, cytotoxicity control for Shn3 inhibitor project, dose response (AID 624134); type: functional
[16] = target: Photoreceptor-specific nuclear receptor (Homo sapiens, UniProt Q9Y5X4); type: functional, cell-based;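 also: CHO-S cells with Gal4-NCOR and VP16-NR2E3 two-hybrid luciferase reporter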
[17] = target: T6, Microphthalmia-associated transcription factor (Homo sapiens, UniProt O75030); assay: reducers of TRPM1 reporter luminescence, concentration series – cell-based, SK-MEL-5, cherry-picked, set 3, MITF inhibitor project, dose response (AID 493073); type: functional;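 also: SK-MEL-5 melanoma cells with luciferase driven by the MITF target TRPM1 promoter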
T6 sequence (O75030 whole entry): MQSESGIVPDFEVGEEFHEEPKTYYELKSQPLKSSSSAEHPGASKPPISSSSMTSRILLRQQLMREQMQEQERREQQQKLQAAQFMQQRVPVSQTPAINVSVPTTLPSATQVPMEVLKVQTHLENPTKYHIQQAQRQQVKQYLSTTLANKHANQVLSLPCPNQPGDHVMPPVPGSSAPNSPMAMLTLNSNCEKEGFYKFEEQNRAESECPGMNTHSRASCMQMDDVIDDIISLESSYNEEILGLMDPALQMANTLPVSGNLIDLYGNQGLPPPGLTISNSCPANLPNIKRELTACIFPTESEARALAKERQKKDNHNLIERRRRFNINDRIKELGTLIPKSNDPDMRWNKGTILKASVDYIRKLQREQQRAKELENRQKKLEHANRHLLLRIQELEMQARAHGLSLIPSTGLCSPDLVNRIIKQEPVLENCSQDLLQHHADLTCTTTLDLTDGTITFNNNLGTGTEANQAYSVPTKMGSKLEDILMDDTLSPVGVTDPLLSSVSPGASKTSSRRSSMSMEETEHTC

[18] = reduction of Shn3 3'UTR-driven luciferase in osteoblasts – cell-based, Clone20 osteoblasts, firefly luciferase, cherry-picked, dose response (AID 624132); type: functional;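 also: firefly luciferase luminescence from reporter carrying the Shn3 3'UTR in osteoblasts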
[19] = target: T7, Low molecular weight phosphotyrosine protein phosphatase (Homo sapiens, UniProt P24666); type: functional; conditions: read-out: IC50_Mean
T7 sequence (P24666 whole entry): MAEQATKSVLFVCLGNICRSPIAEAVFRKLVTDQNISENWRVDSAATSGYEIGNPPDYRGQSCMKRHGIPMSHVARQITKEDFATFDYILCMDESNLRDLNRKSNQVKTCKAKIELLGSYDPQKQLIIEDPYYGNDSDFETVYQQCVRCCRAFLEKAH

[20] = target: T7, Low molecular weight phosphotyrosine protein phosphatase; type: functional; conditions: read-out: IC50_Mean; remark: listed apart in the source

T3 sequence (P08183 whole entry): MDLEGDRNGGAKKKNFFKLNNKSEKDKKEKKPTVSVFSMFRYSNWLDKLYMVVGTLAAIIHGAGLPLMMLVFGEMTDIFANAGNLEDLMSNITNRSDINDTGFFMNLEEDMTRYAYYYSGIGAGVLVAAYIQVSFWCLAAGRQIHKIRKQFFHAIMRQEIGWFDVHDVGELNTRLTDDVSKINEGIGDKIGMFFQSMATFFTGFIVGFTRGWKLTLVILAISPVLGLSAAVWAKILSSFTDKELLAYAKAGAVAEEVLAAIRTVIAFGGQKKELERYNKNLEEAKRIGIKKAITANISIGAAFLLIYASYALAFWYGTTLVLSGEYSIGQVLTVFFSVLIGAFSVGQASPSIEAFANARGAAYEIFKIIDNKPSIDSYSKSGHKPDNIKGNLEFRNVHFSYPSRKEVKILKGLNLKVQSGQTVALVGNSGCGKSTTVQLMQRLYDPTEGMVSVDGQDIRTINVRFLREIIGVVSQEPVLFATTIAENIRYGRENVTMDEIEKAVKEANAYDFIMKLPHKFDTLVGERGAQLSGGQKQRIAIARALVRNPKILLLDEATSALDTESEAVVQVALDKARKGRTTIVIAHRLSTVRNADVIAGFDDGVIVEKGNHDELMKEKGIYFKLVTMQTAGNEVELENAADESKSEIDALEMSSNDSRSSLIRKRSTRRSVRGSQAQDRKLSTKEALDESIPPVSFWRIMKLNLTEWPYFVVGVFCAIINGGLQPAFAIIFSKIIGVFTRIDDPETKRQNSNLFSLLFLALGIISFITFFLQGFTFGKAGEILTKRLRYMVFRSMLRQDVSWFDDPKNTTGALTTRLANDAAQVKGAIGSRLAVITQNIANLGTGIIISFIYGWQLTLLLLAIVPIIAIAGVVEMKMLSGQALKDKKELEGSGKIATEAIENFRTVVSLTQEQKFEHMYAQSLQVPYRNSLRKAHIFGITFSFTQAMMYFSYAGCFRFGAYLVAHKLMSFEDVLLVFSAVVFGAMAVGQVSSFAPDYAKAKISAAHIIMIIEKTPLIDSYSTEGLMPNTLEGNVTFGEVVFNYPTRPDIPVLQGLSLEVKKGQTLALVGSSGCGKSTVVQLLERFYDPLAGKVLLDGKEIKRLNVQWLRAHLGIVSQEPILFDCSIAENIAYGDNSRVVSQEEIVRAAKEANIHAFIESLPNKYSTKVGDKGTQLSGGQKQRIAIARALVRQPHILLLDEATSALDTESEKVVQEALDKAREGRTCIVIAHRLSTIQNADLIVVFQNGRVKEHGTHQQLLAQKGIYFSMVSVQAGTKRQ
Sequence of Photoreceptor-specific nuclear receptor (Q9Y5X4 whole entry, the tested form may be a part): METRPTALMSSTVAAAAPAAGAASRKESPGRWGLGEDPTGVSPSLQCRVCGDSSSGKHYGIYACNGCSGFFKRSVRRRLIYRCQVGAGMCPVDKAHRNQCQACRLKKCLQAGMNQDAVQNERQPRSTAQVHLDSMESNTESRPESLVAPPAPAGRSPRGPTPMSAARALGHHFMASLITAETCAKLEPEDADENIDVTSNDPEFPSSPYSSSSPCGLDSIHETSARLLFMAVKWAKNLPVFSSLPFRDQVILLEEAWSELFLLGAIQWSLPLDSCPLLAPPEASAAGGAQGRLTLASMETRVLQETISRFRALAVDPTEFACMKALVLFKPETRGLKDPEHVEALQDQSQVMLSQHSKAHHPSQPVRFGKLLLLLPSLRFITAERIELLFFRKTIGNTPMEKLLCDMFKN
Sequence of 26S proteasome non-ATPase regulatory subunit 14 (O00487 whole entry): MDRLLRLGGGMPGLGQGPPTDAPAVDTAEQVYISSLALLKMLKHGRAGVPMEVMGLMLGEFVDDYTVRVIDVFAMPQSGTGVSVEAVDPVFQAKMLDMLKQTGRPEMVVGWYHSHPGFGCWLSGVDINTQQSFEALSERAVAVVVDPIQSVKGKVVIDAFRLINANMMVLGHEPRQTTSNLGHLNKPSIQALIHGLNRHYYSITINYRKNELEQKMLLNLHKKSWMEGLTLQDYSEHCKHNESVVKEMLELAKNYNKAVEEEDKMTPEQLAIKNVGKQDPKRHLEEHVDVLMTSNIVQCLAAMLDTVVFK
Sequence of DNA (cytosine-5)-methyltransferase 1 (P26358 whole entry): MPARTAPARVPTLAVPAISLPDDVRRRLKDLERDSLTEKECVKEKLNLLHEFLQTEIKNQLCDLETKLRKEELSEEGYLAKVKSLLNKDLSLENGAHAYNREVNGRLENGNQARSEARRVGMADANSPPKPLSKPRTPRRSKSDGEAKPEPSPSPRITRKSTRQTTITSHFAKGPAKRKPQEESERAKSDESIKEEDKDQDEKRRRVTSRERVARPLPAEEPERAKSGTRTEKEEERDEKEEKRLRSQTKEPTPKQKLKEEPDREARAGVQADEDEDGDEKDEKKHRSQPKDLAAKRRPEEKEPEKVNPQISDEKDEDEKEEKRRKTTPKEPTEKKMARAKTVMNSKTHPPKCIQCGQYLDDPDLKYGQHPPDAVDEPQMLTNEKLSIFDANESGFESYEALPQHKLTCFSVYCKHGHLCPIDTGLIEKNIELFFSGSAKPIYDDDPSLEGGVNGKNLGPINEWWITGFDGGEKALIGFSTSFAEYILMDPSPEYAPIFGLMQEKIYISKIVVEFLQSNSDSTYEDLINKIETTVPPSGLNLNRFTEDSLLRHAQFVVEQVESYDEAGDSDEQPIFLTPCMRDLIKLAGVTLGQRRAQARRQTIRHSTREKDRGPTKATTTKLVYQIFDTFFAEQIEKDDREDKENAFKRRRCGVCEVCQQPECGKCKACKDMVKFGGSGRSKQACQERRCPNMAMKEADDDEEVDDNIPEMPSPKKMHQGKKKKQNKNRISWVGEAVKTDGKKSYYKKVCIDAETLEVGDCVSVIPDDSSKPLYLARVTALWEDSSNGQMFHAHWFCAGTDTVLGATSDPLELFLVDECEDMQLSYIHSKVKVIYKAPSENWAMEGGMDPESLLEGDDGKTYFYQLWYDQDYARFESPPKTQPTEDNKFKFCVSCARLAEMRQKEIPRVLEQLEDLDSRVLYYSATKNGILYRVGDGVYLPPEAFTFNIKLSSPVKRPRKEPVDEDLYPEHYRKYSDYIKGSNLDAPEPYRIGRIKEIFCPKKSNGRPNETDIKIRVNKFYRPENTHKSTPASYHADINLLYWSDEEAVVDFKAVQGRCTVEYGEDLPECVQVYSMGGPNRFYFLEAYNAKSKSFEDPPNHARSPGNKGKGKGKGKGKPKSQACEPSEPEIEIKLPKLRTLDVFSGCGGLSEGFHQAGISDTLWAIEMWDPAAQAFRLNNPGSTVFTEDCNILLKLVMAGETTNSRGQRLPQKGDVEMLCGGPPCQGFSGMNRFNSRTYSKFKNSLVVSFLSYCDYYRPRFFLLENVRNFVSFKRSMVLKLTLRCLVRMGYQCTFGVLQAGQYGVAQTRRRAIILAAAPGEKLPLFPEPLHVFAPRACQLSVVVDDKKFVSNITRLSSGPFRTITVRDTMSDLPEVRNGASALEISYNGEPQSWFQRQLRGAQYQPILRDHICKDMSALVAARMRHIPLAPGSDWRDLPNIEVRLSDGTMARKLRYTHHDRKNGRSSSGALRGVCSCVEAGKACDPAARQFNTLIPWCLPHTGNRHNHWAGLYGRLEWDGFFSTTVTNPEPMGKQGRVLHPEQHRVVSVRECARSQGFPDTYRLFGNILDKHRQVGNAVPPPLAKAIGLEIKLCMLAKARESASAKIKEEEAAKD
Sequence of Nuclear receptor subfamily 5 group A member 2 (O00482 whole entry): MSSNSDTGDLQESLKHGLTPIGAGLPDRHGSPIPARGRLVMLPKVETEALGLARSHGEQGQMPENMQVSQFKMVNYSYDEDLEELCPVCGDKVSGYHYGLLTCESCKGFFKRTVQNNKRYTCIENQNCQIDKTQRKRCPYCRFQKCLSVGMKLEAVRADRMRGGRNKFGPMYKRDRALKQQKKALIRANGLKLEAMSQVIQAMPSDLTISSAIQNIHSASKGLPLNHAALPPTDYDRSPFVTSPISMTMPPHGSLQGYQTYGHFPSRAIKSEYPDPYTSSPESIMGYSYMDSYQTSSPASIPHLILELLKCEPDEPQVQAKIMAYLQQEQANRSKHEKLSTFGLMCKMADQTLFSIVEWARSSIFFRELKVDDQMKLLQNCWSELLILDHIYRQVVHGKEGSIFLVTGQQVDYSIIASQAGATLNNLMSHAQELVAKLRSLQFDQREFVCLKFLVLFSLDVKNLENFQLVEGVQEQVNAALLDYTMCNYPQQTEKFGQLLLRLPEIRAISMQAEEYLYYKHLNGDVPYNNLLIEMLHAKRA
Sequence of 72 kDa type IV collagenase (P08253 whole entry): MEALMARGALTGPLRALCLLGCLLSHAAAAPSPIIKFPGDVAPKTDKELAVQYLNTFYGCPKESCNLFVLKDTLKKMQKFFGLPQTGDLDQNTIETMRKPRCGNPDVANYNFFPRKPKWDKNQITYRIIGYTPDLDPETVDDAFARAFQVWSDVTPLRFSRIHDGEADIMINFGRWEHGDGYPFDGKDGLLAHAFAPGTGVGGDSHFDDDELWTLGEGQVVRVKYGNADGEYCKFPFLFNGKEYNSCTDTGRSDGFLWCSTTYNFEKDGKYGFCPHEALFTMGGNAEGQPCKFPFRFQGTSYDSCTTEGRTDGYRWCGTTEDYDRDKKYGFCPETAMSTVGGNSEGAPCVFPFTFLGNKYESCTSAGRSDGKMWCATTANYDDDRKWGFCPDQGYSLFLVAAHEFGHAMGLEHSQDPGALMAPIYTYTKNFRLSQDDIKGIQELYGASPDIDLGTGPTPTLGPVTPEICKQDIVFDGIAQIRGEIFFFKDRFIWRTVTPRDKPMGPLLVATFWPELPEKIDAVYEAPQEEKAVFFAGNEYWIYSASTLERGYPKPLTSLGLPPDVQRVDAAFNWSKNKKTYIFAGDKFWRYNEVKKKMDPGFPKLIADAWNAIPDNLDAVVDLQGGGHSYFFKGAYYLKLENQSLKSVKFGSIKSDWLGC

CC1=NN(c2ccccc2)C(=O)C1/C=C1\NC(=S)NC1=O (configuration not stated)
IC50 [1]: 238 µM (active) | IC50 [2]: 8.39 µM (active) | IC50 [3]: 32.4 µM (active) | IC50 (Prothrombin): 52.8 µM (active) | IC50 [4]: > 100 µM (inactive) | AC50 [5]: 4.16 µM (active)

COc1ccccc1-c1cc2nc(-c3ccccc3)cc(N3CCN(C(=O)c4ccccc4)CC3)n2n1
EC50 [6]: 2.87 µM (active) | EC50 [7]: 0.72 µM (active)

Cc1ccc(NCC(C)C(=O)O)cc1C (configuration not stated)
EC50 [8]: > 100 µM (inactive)

c1cc(-c2cnc3cccnn23)c2cccnc2c1
IC50 (Interleukin-8 [9]): 56.5 µM (inactive) | IC50 (Interleukin-8 [10]): 14.4 µM (inactive)

COc1ccc(N=C(S)N2CCC(c3nc4cc(Cl)ccc4[nH]3)CC2)c(OC)c1
IC50 [11]: 83.3 µM (inactive)

O=C(CN1C(=O)NC2(CCCCC2)C1=O)NCCc1c[nH]c2ccccc12
IC50 (Steroidogenic factor 1): 5.36 µM (active) | IC50 [12]: 10.3 µM (inactive) | IC50 [13]: 35.9 µM (inactive)

O=C(N1CCCCC1Cc1ccccc1)n1cc(-c2ccc(OC(F)(F)F)cc2)nn1 (configuration not stated)
IC50 [14]: 0.052 µM (active)

Cc1cc(C(=O)COc2cccnc2[N+](=O)[O-])c(C)n1-c1ccccc1
AC50 [15]: > 70 µM (inactive) | IC50 [16]: 0.517 µM (active) | AC50 [17]: 1.48 µM (active) | AC50 [18]: 34.8 µM (active)

Fc1ccccc1-c1nc(NC2CCCC2)c2ccccc2n1
IC50 [19]: 7.48 µM (active) | IC50 [20]: 13.1 µM (active)
